The results in this text go back to BindingDB's records for patent US20240174647 (Neuron23, 2024).

This test deals with Leucine-rich repeat serine/threonine-protein kinase 2 (Homo sapiens, UniProt Q5S007). Put plainly: Biochemical Assay. On the procedure:
The protocol for basic TR-FRET LanthaScreen Tb Kinase Activity Assay inhibitor studies were as follows. LanthaScreen Kinase Activity Assays (ThermoFisher/USA) to evaluate inhibitors were performed by addition of 100 nL of test compound in corresponding DMSO dilutions/5 μL of kinase/fluorescein-ERM(LRRKtide) peptide mixture, 5 μL of ATP into 384 well small volume plates. After incubation for 120 minutes at room temperature, the detection reagents containing Tb-anti-pLRRKtide antibody were added to monitor phosphrylation level of peptide. Then, after 60 min minutes incubation at room temperature plates were read in Envision. Data analysis of emission ratios was according to LanthaScreen Tb Kinase Activity Assay protocol.Kinase and assay components were adjusted to final concentrations according to the kit protocol. For LRRK2: 2 nM wt human LRRK2, catalytic site, catalytic site (ThermoFisher/USA), 400 nM peptide, 38 μM ATP in 1× Kinase Buffer A.Basic protocol for TR-FRET LanthaScreen Tb Kinase Activity Assay inhibitor studies involved two steps:Enzymatic step: Addition of 100 nL of test compound in corresponding DMSO dilutions, 5 μL of kinase/substrate mixture, 5 μL of ATP into 384 well small volume plates. Incubation for 120 minutes at room temperature.Detection step: Addition of 10 μL EDTA & antibody, read plate after 60 minutes. […]

Sequence of Leucine-rich repeat serine/threonine-protein kinase 2 (Q5S007 whole entry): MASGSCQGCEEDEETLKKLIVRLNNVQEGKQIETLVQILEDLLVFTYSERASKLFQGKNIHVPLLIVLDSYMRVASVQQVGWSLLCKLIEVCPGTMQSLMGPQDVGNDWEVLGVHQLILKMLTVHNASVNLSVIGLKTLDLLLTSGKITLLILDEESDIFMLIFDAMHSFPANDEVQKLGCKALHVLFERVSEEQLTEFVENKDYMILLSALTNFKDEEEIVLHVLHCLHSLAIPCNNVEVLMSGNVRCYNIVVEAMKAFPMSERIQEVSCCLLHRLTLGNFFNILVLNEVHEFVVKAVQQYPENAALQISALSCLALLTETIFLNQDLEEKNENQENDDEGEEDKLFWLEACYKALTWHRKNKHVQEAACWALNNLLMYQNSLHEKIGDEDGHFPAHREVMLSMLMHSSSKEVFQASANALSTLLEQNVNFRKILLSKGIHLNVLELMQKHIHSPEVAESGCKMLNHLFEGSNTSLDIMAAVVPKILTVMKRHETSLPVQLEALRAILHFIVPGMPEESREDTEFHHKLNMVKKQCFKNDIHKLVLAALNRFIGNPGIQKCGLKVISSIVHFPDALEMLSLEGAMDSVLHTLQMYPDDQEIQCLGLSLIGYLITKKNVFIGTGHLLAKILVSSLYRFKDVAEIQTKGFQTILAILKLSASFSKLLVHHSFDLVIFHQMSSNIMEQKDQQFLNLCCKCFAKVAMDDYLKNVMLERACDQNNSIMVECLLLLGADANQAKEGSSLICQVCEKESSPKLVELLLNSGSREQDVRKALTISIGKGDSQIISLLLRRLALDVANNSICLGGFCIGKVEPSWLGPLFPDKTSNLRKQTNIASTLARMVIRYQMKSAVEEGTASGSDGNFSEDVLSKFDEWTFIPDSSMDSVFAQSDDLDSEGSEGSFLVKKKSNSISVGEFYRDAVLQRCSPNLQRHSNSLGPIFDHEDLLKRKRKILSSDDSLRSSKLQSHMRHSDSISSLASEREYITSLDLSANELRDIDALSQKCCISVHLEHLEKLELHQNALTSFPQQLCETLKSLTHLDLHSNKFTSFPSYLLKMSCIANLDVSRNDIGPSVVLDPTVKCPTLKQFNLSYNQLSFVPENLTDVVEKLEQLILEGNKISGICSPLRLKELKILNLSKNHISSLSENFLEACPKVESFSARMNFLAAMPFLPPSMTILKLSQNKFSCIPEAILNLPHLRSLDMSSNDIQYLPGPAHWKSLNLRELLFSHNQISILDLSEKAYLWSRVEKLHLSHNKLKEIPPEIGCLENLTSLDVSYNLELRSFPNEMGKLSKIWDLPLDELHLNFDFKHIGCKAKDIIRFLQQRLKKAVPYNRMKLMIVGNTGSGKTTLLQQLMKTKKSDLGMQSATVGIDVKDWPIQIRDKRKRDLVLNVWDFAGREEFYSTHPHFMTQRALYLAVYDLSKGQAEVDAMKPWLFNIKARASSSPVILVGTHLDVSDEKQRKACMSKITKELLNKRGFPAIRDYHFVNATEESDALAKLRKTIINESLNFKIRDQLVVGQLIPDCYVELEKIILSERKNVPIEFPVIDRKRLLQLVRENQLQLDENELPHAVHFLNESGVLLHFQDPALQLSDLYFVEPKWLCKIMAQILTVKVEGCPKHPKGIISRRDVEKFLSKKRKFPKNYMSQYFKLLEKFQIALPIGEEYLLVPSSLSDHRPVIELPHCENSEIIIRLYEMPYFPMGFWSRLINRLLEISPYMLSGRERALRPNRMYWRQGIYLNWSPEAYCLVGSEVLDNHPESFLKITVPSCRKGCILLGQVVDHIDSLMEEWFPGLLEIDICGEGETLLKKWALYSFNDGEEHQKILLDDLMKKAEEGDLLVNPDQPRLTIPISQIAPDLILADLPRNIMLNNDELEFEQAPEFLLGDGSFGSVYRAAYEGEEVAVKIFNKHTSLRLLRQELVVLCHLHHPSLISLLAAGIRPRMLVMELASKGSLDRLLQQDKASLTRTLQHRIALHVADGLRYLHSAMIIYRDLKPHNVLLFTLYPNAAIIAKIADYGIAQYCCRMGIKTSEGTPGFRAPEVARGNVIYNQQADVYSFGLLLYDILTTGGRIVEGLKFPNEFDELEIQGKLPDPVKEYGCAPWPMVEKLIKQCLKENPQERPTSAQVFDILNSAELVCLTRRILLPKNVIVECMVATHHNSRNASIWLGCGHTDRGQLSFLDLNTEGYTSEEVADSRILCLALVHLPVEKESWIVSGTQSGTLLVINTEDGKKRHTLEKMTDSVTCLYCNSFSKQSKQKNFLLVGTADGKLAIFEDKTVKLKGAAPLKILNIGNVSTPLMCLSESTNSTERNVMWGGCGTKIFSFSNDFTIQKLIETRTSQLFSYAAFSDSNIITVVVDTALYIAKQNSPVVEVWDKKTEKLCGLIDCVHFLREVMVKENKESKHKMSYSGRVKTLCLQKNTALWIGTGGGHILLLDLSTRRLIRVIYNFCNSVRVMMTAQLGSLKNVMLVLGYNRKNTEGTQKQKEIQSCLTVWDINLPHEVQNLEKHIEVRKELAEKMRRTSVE

A word on the IC50: it is the midpoint of a concentration-inhibition curve. Higher therefore signals weaker potency. `CNc1nc(Nc2ccc(F)c3[nH]ncc23)ncc1C(F)(F)F` [US20240174647, Example 27] gave a half-maximal inhibitory concentration (IC50) of less than 50 nM.
